Test results as given in patent US20050136043A1, “TGFbeta signaling inhibitors” (Ludwig Institute for Cancer Research, priority 2003, published 2005).
Read-outs that look alike come from different tables or passages of the source.

Columns and labels:
GST-TβR-I [1] = target: T1, GST-TβR-I (Homo sapiens, UniProt P36897, T204D); test: In vitro kinase assay: phosphorylation of GST-Smad3deltaMH1 by GST-TβR-I; type: biochemical
T1 construct: the complete cytoplasmic part (amino acid residues 148-503) of constitutively active TβR-I (T204D) FLAG-tagged at the C-terminus; made in house; host or cells: E. coli
T1 sequence (P36897 148-503 T204D): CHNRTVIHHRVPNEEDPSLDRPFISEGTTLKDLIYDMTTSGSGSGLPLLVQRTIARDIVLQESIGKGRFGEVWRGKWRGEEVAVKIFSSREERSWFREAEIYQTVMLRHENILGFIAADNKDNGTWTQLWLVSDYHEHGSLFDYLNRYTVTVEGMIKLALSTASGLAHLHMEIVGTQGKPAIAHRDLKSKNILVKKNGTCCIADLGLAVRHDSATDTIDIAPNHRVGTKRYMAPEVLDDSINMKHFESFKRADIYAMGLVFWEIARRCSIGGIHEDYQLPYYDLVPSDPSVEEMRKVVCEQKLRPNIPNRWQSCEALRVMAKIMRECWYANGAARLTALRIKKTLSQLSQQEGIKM

[2] = system: phosphorylation of endogenous Smad2 by TβR-I in Mv1Lu cells; test: TGFβ1-dependent phosphorylation of endogenous Smad2 in Mv1Lu cells (pS2 immunoblot); type: cell-based; conditions: for Effect of low molecular weight inhibitors on TGFβ1-dependent phosphorylation of Smad2: Mv1Lu cells, TGFβ1 10 ng/ml 30 min, FIG. 3A
p38 MAP = p38 MAP (Homo sapiens, UniProt Q16539); conditions: Calbiochem product data sheets; read-out: IC50 p38 MAP in vitro; cited from earlier work
GST-TβR-I [3] = target: T1, GST-TβR-I; test: GST-TβR-I autophosphorylation assay; type: biochemical; conditions: peptides at 1 and 10 μM, FIG. 4A
Procedure: In vitro kinase assay: GST-TβRI activity was assayed in vitro using the known TβR-I substrates GST-Smad3deltaMH1, GST-Smad2; GST-Smad1 was used as a control for specificity. The reaction mixture (20 μl) contained 20 mM HEPES (pH 7.4), 10 mM MgCl2, 2 mM MnCl2, 1 mM dithiothreitol (DTT), 5 μM ATP plus 0.5 μCi [γ^32P]ATP (Redivue, Amersham Biosciences), and inhibitors at different concentrations. The reaction was initiated by an addition of 0.02 μg purified GST-TβRI, followed by incubation at 22° C. for 20 min. Reaction was terminated by addition of 5 μl of 5× SDS-sample buffer. Samples were subjected to SDS-PAGE followed by analysis in a FujiX2000 phosphorimager. For all in vitro enzyme assays, the percent inhibition was calculated as 100×(1-Ai/A0), where Ai and A0 are levels of GST-Smad phosphorylation in the presence and absence of inhibitors, respectively. […] Phosphorylated GST-Smad3deltaMH1 and autophosphorylated GST-TβRI were analyzed by tryptic phosphopeptide mapping, as described previously.
A GST-TβR-I autophosphorylation assay was performed in the absence or presence of antp-Sm2S (SEQ ID NO:3), antp-Sm2A (SEQ ID NO:2) and antp-Sm5A (SEQ ID NO:4) peptides at concentrations of 1 and 10 μM, as indicated (FIG. 4A).

[4] = target: T2, constitutively active TβR-I (Homo sapiens, UniProt P36897, T204D); test: In vitro kinase assay with immunoprecipitated constitutively active TβR-I expressed in Mv1Lu cells; type: biochemical; conditions: immunoprecipitated from Mv1Lu cells, data not shown
T2 construct: made in house; host or cells: Mv1Lu cells (expressed, immunoprecipitated)
T2 sequence (P36897 34-503 T204D): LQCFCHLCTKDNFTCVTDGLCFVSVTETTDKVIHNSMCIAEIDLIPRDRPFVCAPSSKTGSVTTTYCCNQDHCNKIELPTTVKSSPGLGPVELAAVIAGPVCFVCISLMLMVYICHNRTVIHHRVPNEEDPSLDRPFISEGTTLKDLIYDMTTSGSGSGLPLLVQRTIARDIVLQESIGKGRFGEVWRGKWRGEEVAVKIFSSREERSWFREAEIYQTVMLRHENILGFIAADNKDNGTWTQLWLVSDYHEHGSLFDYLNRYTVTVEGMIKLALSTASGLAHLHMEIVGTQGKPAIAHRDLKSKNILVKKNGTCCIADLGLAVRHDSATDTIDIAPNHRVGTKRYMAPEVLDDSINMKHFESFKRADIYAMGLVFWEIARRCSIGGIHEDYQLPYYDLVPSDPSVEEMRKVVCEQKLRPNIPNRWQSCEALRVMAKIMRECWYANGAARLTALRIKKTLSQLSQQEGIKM

Mv1Lu cells = test: Growth inhibition assay, [3H]thymidine incorporation; type: cell-based; conditions: peptide 50 μM, TGFβ1 0.1 ng/ml, 24 hours, FIG. 7
Procedure: Growth inhibition assay: Growth inhibition assay with MV1Lu cells, using evaluation of [^3H]thymidine incorporation, was performed as described earlier. Briefly, cells were preincubated with peptides for 30 min, and then treated or not with TGFβ1 (0.1 ng/ml) for 24 h. During the last two hours of incubation, [^3H]thymidine was added. Radioactivity incorporated into DNA was measured in a scintillation counter. No cytotoxic effects of peptides were observed after 24 h incubation with cells, as evaluated by observation of cells in a microscope.
To explore whether the antp-Sm2A (SEQ ID NO:2) peptide can interfere with the TGFβ-dependent effects on cells, we performed an assay with Mv1Lu cells, which are widely used in studies of TGFβ effects and are potently growth-inhibited by TGFβ [29]. […] [^3H]thymidine was added to cells for last two hours of incubation, and radioactivity incorporated into DNA was measured.

[5] = in vitro kinase assay, 5 μM ATP, read-out: IC50 GST-TβRI in vitro

Chain of p38 MAP (Q16539 whole entry): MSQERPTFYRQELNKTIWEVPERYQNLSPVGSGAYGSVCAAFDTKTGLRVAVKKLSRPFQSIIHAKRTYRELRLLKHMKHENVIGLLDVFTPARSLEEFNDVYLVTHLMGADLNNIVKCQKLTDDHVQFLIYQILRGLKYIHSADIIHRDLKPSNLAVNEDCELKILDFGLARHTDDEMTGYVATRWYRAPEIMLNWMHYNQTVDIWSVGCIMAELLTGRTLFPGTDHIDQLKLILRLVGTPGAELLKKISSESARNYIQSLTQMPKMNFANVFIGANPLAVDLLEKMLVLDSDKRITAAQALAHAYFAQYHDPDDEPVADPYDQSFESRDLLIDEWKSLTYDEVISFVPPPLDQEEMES

CC[C@H](CO)Nc1nc(NCc2ccccc2)c2ncn(C(C)C)c2n1 [roscovitine]
Effect on the kinase activity of GST-TβR-I (phosphorylation of GST-Smad3deltaMH1) (GST-TβR-I [1]): did not have an effect

CCc1[nH]c(-c2ccc(OC)cc2)nc1-c1ccncc1 [SB202474]
IC50 (GST-TβR-I [1]; [5]): 30 µM

CC1CNCCN1S(=O)(=O)c1cccc2cnccc12.Cl (stereo not shown) [H7]
IC50 (GST-TβR-I [1]; [5]): 200 µM
Effect on the kinase activity of GST-TβR-I (phosphorylation of GST-Smad3deltaMH1) (GST-TβR-I [1]; in vitro kinase assay, FIG. 2A): inhibited
Effect of low molecular weight inhibitors on TGFβ1-dependent phosphorylation of Smad2 [2]: weaker than that of SB203580

Cc1nc(-c2ccncc2)c(-c2ccccc2)o1 [SC68376]
IC50 (GST-TβR-I [1]; [5]): 5 µM
IC50 (p38 MAP): 2 to 5 µM

CN[C@@H]1C[C@H]2O[C@@](C)([C@@H]1OC)n1c3ccccc3c3c4c(c5c6ccccc6n2c5c31)C(=O)NC4 [staurosporine]
Effect on the kinase activity of GST-TβR-I (phosphorylation of GST-Smad3deltaMH1) (GST-TβR-I [1]): did not have an effect

C[S+]([O-])c1ccc(-c2nc(-c3ccc(F)cc3)c(-c3ccncc3)[nH]2)cc1 (stereo not shown) [SB203580]
Effect of low molecular weight inhibitors on TGFβ1-dependent phosphorylation of Smad2 [2]: significantly reduced
inhibition at 25 µM ([2]; Mv1Lu, 0.5 h, read-out: Inhibition of TGFβ1-induced Smad2 phosphorylation): 57%

Oc1ccc(-c2nc(-c3ccncc3)c(-c3ccc(F)cc3)[nH]2)cc1 [SB202190]
IC50 (GST-TβR-I [1]; read-out: IC50 for inhibition of GST-TβR-I): 0.02 µM

COc1cccc(-c2cc(=O)c3ccccc3o2)c1N [PD98058]
Effect on the kinase activity of GST-TβR-I (phosphorylation of GST-Smad3deltaMH1) (GST-TβR-I [1]; in vitro kinase assay, FIG. 2A): did not have an effect

RQIKIWFQNRRMKWKKTQMGSPLNPISAVA (listed as Homo sapiens) [antp-Sm5A, penetratin fused to Smad5 C-terminus with serines replaced by alanine; specificity control, reference compound]
Effect of peptides on TGFβ1-dependent phosphorylation of endogenous Smad2 ([2]; Mv1Lu cells pretreated with peptide, 15 min TGFβ1, FIG. 6A): did not have any effect
Inhibition of autophosphorylation of GST-TβR-I (GST-TβR-I [3]): No or only weak inhibition
Inhibition of autophosphorylation of TβR-I [4]: only a marginal effect
Reversion of the inhibitory action of TGFβ1 on DNA synthesis (Mv1Lu cells): did not have any effect
